Results on two substances are retold here after PMC3348578 (2009).

The subject of data set [1] is FAP (purified recombinant FAP; His-tagged FAP lacking the transmembrane domain). The data set can be described thus: purified FAP in FAP assay buffer containing 100 mmol/L Tris, 100 mmol/L NaCl. Particulars: 37°C, up to 8 h.
The subject of the next data set is DPP4-like protease. The data set can be described thus: honeybee venom gland extracts. The conditions noted are these: cited from earlier work.

In the case of NH2-GIGAVLKVLTTGLPALISWIKRKRQQ-NH2, in data set [1], the not cleaved entry is “not cleaved by FAP”.
Turning to “APEPEPAPEPEAEADAEADPEAGIGAVLKVLTTGLPALISWIKRKRQQ-NH2”, in the data set on DPP4-like protease, the fragment found is given as 11 dipeptide fragments.
